Like-named read-outs stand apart in the source and are kept apart here.
Legend:
Assay type in all cases: in vivo
[1] = system: giant foxtail (Setaria faberi); test: Test A pre-/postemergence plant response; conditions: Setaria faberi, 240 h, read-out: Plant response rating, Foxtail, Giant; for pest or weed control at 125 g/ha: 125 g ai/ha; for pest or weed control at 500 g/ha: 500 g ai/ha; for pest or weed control at 31 g/ha: 31 g ai/ha
In short: (§1)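 Greenhouse pot test: loam–sand soil; pre- and postemergence sprays applied same day; post plants 2–10 cm, 1–2 leaves. Readout ~10 d, visual % injury vs untreated (0 = none, 100 = complete control).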

[2] = system: wheat (Triticum aestivum); test: Test A pre-/postemergence plant response; conditions: Triticum aestivum, 240 h, read-out: Plant response rating, Wheat; for plant injury at 125 g/ha: 125 g ai/ha; for plant injury at 500 g/ha: 500 g ai/ha; for plant injury at 31 g/ha: 31 g ai/ha
In short: as §1

[3] = system: barnyardgrass (Echinochloa crus-galli); test: Test A pre-/postemergence plant response; conditions: Echinochloa crus-galli, 240 h, read-out: Plant response rating, Barnyardgrass; for pest or weed control at 125 g/ha: 125 g ai/ha; for pest or weed control at 500 g/ha: 500 g ai/ha; for pest or weed control at 31 g/ha: 31 g ai/ha
In short: as §1

[4] = system: pigweed (Amaranthus retroflexus); test: Test A pre-/postemergence plant response; conditions: Amaranthus retroflexus, 240 h, read-out: Plant response rating, Pigweed; for pest or weed control at 125 g/ha: 125 g ai/ha; for pest or weed control at 500 g/ha: 500 g ai/ha; for pest or weed control at 31 g/ha: 31 g ai/ha
In short: as §1

[5] = system: large crabgrass (Digitaria sanguinalis); test: Test A pre-/postemergence plant response; conditions: Digitaria sanguinalis, 240 h, read-out: Plant response rating, Crabgrass, Large; for pest or weed control at 125 g/ha: 125 g ai/ha; for pest or weed control at 500 g/ha: 500 g ai/ha; for pest or weed control at 31 g/ha: 31 g ai/ha
In short: as §1

[6] = system: umbrella sedge (Cyperus difformis); test: Test B flooded paddy test plant response; conditions: Cyperus difformis, read-out: Plant response rating, Sedge, Umbrella; for pest or weed control at 62 g/ha: 62 g ai/ha; for pest or weed control at 250 g/ha: 250 g ai/ha
In short: (§2)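 Paddy-water application to 2-leaf plants in pots held under 3 cm of flooding; response is a 0–100 visual control rating against controls after 13 to 15 days, and a dash marks a missing result.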

[7] = system: barnyardgrass (Echinochloa crus-galli); test: Test B flooded paddy test plant response; conditions: Echinochloa crus-galli, read-out: Plant response rating, Barnyardgrass; for pest or weed control at 62 g/ha: 62 g ai/ha; for pest or weed control at 250 g/ha: 250 g ai/ha
In short: as §2

[8] = system: ducksalad (Heteranthera limosa); test: Test B flooded paddy test plant response; conditions: Heteranthera limosa, read-out: Plant response rating, Ducksalad; for pest or weed control at 62 g/ha: 62 g ai/ha; for pest or weed control at 250 g/ha: 250 g ai/ha
In short: as §2

[9] = post-emergence, Postemergence, 0 to 100 scale, 0 no effect, 100 complete control
[10] = pre-emergence, Preemergence, 0 to 100 scale (0 no effect, 100 complete control)
[11] = Flood (flooded paddy test), scale 0 to 100, 0 no effect, 100 complete control
[12] = Flood (flooded paddy test), 125 g ai/ha, scale 0 to 100, 0 no effect, 100 complete control
[13] = Flood, 31 g ai/ha, scale 0 to 100
[14] = post-emergence, Postemergence, 0 to 100 scale (0 no effect, 100 complete control)
[15] = pre-emergence, Preemergence, 0 to 100 scale, 0 is no effect, 100 is complete control

Cc1cc(-c2ccc(Br)cc2)nn1-c1c(O)cnn(C2CCCCO2)c1=O (stereo not shown) [Compound 77, 4-[3-(4-bromophenyl)-5-methyl-1H-pyrazol-1-yl]-5-hydroxy-2-(tetrahydro-2H-pyran-2-yl)-3(2H)-pyridazinone]
pest or weed control at 125 g/ha [1, 9]: 80% | pest or weed control at 500 g/ha [1, 9]: 100% | pest or weed control at 125 g/ha [1, 10]: 30% | pest or weed control at 500 g/ha [1, 10]: 100% | plant injury at 125 g/ha [2, 9]: 70% | plant injury at 500 g/ha [2, 9]: 90% | plant injury at 125 g/ha [2, 10]: 0% | plant injury at 500 g/ha [2, 10]: 80% | pest or weed control at 125 g/ha [3, 9]: 50% | pest or weed control at 500 g/ha [3, 9]: 100% | pest or weed control at 125 g/ha [3, 10]: 0% | pest or weed control at 500 g/ha [3, 10]: 100% | pest or weed control at 125 g/ha [4, 9]: 0% | pest or weed control at 500 g/ha [4, 9]: 0% | pest or weed control at 125 g/ha [4, 10]: 0% | pest or weed control at 500 g/ha [4, 10]: 0% | pest or weed control at 125 g/ha [5, 9]: 70% | pest or weed control at 500 g/ha [5, 9]: 100% | pest or weed control at 125 g/ha [5, 10]: 10% | pest or weed control at 500 g/ha [5, 10]: 100% | pest or weed control at 62 g/ha [6, 11]: 0% | pest or weed control at 125 g/ha [6, 12]: 0% | pest or weed control at 250 g/ha [6, 11]: 0% | pest or weed control at 31 g/ha [6, 13]: 0% | pest or weed control at 62 g/ha [7, 11]: 0% | pest or weed control at 125 g/ha [7, 12]: 0% | pest or weed control at 250 g/ha [7, 11]: 0% | pest or weed control at 31 g/ha [7, 13]: 0% | pest or weed control at 62 g/ha [8, 11]: 0% | pest or weed control at 125 g/ha [8, 12]: 0% | pest or weed control at 250 g/ha [8, 11]: 0% | pest or weed control at 31 g/ha [8, 13]: 0%

Cc1cn(-c2ccc(C(F)(F)F)cc2)nc1-c1c(O)cnn(C)c1=O [Compound 85, 5-hydroxy-2-methyl-4-[4-methyl-1-[4-(trifluoromethyl)phenyl]-1H-pyrazol-3-yl]-3(2H)-pyridazinone]
pest or weed control at 31 g/ha [1, 14]: 0% | pest or weed control at 125 g/ha [1, 9]: 60% | pest or weed control at 31 g/ha [1, 15]: 0% | pest or weed control at 125 g/ha [1, 10]: 100% | plant injury at 31 g/ha [2, 14]: 0% | plant injury at 125 g/ha [2, 9]: 20% | plant injury at 31 g/ha [2, 15]: 0% | plant injury at 125 g/ha [2, 10]: 20% | pest or weed control at 31 g/ha [3, 14]: 0% | pest or weed control at 125 g/ha [3, 9]: 30% | pest or weed control at 31 g/ha [3, 15]: 0% | pest or weed control at 125 g/ha [3, 10]: 40% | pest or weed control at 31 g/ha [4, 14]: 0% | pest or weed control at 125 g/ha [4, 9]: 0% | pest or weed control at 31 g/ha [4, 15]: 0% | pest or weed control at 125 g/ha [4, 10]: 0% | pest or weed control at 31 g/ha [5, 14]: 0% | pest or weed control at 125 g/ha [5, 9]: 40% | pest or weed control at 31 g/ha [5, 15]: 10% | pest or weed control at 125 g/ha [5, 10]: 70% | pest or weed control at 250 g/ha [6, 11]: 0% | pest or weed control at 62 g/ha ([6]; Flood, scale 0 to 100): 0% | pest or weed control at 250 g/ha [7, 11]: 0% | pest or weed control at 62 g/ha ([7]; Flood, scale 0 to 100): 0% | pest or weed control at 250 g/ha [8, 11]: 0% | pest or weed control at 62 g/ha ([8]; Flood, scale 0 to 100): 0%
